{"source": "PubChem BioAssay (NCI)", "test_in_all_cases": "NCI-60 cell line screen, 48 h", "key": {"UACC-62 melanoma": {"test_system": "UACC-62 melanoma"}, "ACHN renal": {"test_system": "ACHN renal"}, "NCI-H226 lung": {"test_system": "NCI-H226 lung"}, "M14 melanoma": {"test_system": "M14 melanoma"}, "SK-MEL-5 melanoma": {"test_system": "SK-MEL-5 melanoma"}, "SN12C renal": {"test_system": "SN12C renal"}, "NCI-H522 lung": {"test_system": "NCI-H522 lung"}, "SK-MEL-2 melanoma": {"test_system": "SK-MEL-2 melanoma"}, "COLO 205 colon": {"test_system": "COLO 205 colon"}, "OVCAR-8 ovarian": {"test_system": "OVCAR-8 ovarian"}, "NCI/ADR-RES ovarian": {"test_system": "NCI/ADR-RES ovarian"}, "A498 renal": {"test_system": "A498 renal"}, "MCF7 breast": {"test_system": "MCF7 breast"}, "LOX IMVI melanoma": {"test_system": "LOX IMVI melanoma"}, "MDA-MB-435": {"test_system": "MDA-MB-435"}, "T-47D breast": {"test_system": "T-47D breast"}, "RXF 393 renal": {"test_system": "RXF 393 renal"}, "NCI-H23 lung": {"test_system": "NCI-H23 lung"}, "OVCAR-4 ovarian": {"test_system": "OVCAR-4 ovarian"}, "MALME-3M melanoma": {"test_system": "MALME-3M melanoma"}, "U251 CNS": {"test_system": "U251 CNS"}, "HL-60(TB) leukemia": {"test_system": "HL-60(TB) leukemia"}, "SNB-19 CNS": {"test_system": "SNB-19 CNS"}, "HS 578T breast": {"test_system": "HS 578T breast"}, "OVCAR-3 ovarian": {"test_system": "OVCAR-3 ovarian"}, "CCRF-CEM leukemia": {"test_system": "CCRF-CEM leukemia"}, "HOP-62 NSCLC": {"test_system": "HOP-62 NSCLC"}, "SF-295 CNS": {"test_system": "SF-295 CNS"}, "SR leukemia": {"test_system": "SR leukemia"}, "786-0 renal": {"test_system": "786-0 renal"}, "NCI-H460 lung": {"test_system": "NCI-H460 lung"}, "OVCAR-5 ovarian": {"test_system": "OVCAR-5 ovarian"}, "HT29 colon": {"test_system": "HT29 colon"}, "SNB-75 CNS": {"test_system": "SNB-75 CNS"}, "A549 NSCLC": {"test_system": "A549 NSCLC"}, "SK-OV-3 ovarian": {"test_system": "SK-OV-3 ovarian"}, "MDA-N": {"test_system": "MDA-N"}, "SF-268 CNS": {"test_system": "SF-268 CNS"}, "HCT-116 colon": {"test_system": "HCT-116 colon"}, "KM12 colon": {"test_system": "KM12 colon"}, "UACC-257 melanoma": {"test_system": "UACC-257 melanoma"}, "RPMI-8226 leukemia": {"test_system": "RPMI-8226 leukemia"}, "HOP-92 NSCLC": {"test_system": "HOP-92 NSCLC"}, "SW-620 colon": {"test_system": "SW-620 colon"}, "PC-3 prostate": {"test_system": "PC-3 prostate"}, "K-562 leukemia": {"test_system": "K-562 leukemia"}, "UO-31 renal": {"test_system": "UO-31 renal"}, "IGROV1 ovarian": {"test_system": "IGROV1 ovarian"}, "MDA-MB-231 breast": {"test_system": "MDA-MB-231 breast"}, "CAKI-1 renal": {"test_system": "CAKI-1 renal"}, "SF-539 CNS": {"test_system": "SF-539 CNS"}, "SK-MEL-28 melanoma": {"test_system": "SK-MEL-28 melanoma"}, "HCC-2998 colon": {"test_system": "HCC-2998 colon"}, "EKVX NSCLC": {"test_system": "EKVX NSCLC"}, "DU-145 prostate": {"test_system": "DU-145 prostate"}, "HCT-15 colon": {"test_system": "HCT-15 colon"}, "MOLT-4 leukemia": {"test_system": "MOLT-4 leukemia"}, "BT-549 breast": {"test_system": "BT-549 breast"}}, "note": "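Briefly, cells in 96-well plates were exposed to five compound concentrations for 48 h, and endpoints were estimated by linear interpolation. The concentration for full growth arrest is given as TGI.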"}
{"smiles": "CC1(CCc2ccccc2)CC1(Br)Br", "note": "(stereo not drawn)", "values": [{"measurement": "TGI", "setting": "UACC-62 melanoma", "value": "> 100", "unit": "µM"}, {"measurement": "TGI", "setting": "ACHN renal", "value": 61, "unit": "µM"}, {"measurement": "TGI", "setting": "NCI-H226 lung", "value": 77.1, "unit": "µM"}, {"measurement": "TGI", "setting": "M14 melanoma", "value": "> 100", "unit": "µM"}, {"measurement": "TGI", "setting": "SK-MEL-5 melanoma", "value": 30.1, "unit": "µM"}, {"measurement": "TGI", "setting": "SN12C renal", "value": 38.1, "unit": "µM"}, {"measurement": "TGI", "setting": "NCI-H522 lung", "value": 61.5, "unit": "µM"}, {"measurement": "TGI", "setting": "SK-MEL-2 melanoma", "value": 36.1, "unit": "µM"}, {"measurement": "TGI", "setting": "COLO 205 colon", "value": 51.7, "unit": "µM"}, {"measurement": "TGI", "setting": "OVCAR-8 ovarian", "value": 50.8, "unit": "µM"}, {"measurement": "TGI", "setting": "NCI/ADR-RES ovarian", "value": "> 100", "unit": "µM"}, {"measurement": "TGI", "setting": "A498 renal", "value": "> 100", "unit": "µM"}, {"measurement": "TGI", "setting": "MCF7 breast", "value": "> 100", "unit": "µM"}, {"measurement": "TGI", "setting": "LOX IMVI melanoma", "value": 37.4, "unit": "µM"}, {"measurement": "TGI", "setting": "MDA-MB-435", "value": 60.1, "unit": "µM"}, {"measurement": "TGI", "setting": "T-47D breast", "value": "> 100", "unit": "µM"}, {"measurement": "TGI", "setting": "RXF 393 renal", "value": 41.2, "unit": "µM"}, {"measurement": "TGI", "setting": "NCI-H23 lung", "value": "> 100", "unit": "µM"}, {"measurement": "TGI", "setting": "OVCAR-4 ovarian", "value": "> 100", "unit": "µM"}, {"measurement": "TGI", "setting": "MALME-3M melanoma", "value": 68.3, "unit": "µM"}, {"measurement": "TGI", "setting": "U251 CNS", "value": "> 100", "unit": "µM"}, {"measurement": "TGI", "setting": "HL-60(TB) leukemia", "value": 41.9, "unit": "µM"}, {"measurement": "TGI", "setting": "SNB-19 CNS", "value": "> 100", "unit": "µM"}, {"measurement": "TGI", "setting": "HS 578T breast", "value": "> 100", "unit": "µM"}, {"measurement": "TGI", "setting": "OVCAR-3 ovarian", "value": 39.9, "unit": "µM"}, {"measurement": "TGI", "setting": "CCRF-CEM leukemia", "value": 67.7, "unit": "µM"}, {"measurement": "TGI", "setting": "HOP-62 NSCLC", "value": "> 100", "unit": "µM"}, {"measurement": "TGI", "setting": "SF-295 CNS", "value": "> 100", "unit": "µM"}, {"measurement": "TGI", "setting": "SR leukemia", "value": 41.6, "unit": "µM"}, {"measurement": "TGI", "setting": "786-0 renal", "value": 57.5, "unit": "µM"}, {"measurement": "TGI", "setting": "NCI-H460 lung", "value": "> 100", "unit": "µM"}, {"measurement": "TGI", "setting": "OVCAR-5 ovarian", "value": "> 100", "unit": "µM"}, {"measurement": "TGI", "setting": "HT29 colon", "value": "> 100", "unit": "µM"}, {"measurement": "TGI", "setting": "SNB-75 CNS", "value": "> 100", "unit": "µM"}, {"measurement": "TGI", "setting": "A549 NSCLC", "value": "> 100", "unit": "µM"}, {"measurement": "TGI", "setting": "SK-OV-3 ovarian", "value": "> 100", "unit": "µM"}, {"measurement": "TGI", "setting": "MDA-N", "value": "> 100", "unit": "µM"}, {"measurement": "TGI", "setting": "SF-268 CNS", "value": "> 100", "unit": "µM"}, {"measurement": "TGI", "setting": "HCT-116 colon", "value": "> 100", "unit": "µM"}, {"measurement": "TGI", "setting": "KM12 colon", "value": "> 100", "unit": "µM"}, {"measurement": "TGI", "setting": "UACC-257 melanoma", "value": 83.6, "unit": "µM"}, {"measurement": "TGI", "setting": "RPMI-8226 leukemia", "value": 44.8, "unit": "µM"}, {"measurement": "TGI", "setting": "HOP-92 NSCLC", "value": 60.2, "unit": "µM"}, {"measurement": "TGI", "setting": "SW-620 colon", "value": "> 100", "unit": "µM"}, {"measurement": "TGI", "setting": "PC-3 prostate", "value": "> 100", "unit": "µM"}, {"measurement": "TGI", "setting": "K-562 leukemia", "value": 38.2, "unit": "µM"}, {"measurement": "TGI", "setting": "UO-31 renal", "value": "> 100", "unit": "µM"}, {"measurement": "TGI", "setting": "IGROV1 ovarian", "value": "> 100", "unit": "µM"}, {"measurement": "TGI", "setting": "MDA-MB-231 breast", "value": "> 100", "unit": "µM"}, {"measurement": "TGI", "setting": "CAKI-1 renal", "value": "> 100", "unit": "µM"}, {"measurement": "TGI", "setting": "SF-539 CNS", "value": "> 100", "unit": "µM"}, {"measurement": "TGI", "setting": "SK-MEL-28 melanoma", "value": "> 100", "unit": "µM"}, {"measurement": "TGI", "setting": "HCC-2998 colon", "value": 76.2, "unit": "µM"}, {"measurement": "TGI", "setting": "EKVX NSCLC", "value": 40, "unit": "µM"}, {"measurement": "TGI", "setting": "DU-145 prostate", "value": "> 100", "unit": "µM"}, {"measurement": "TGI", "setting": "HCT-15 colon", "value": "> 100", "unit": "µM"}, {"measurement": "TGI", "setting": "MOLT-4 leukemia", "value": 56, "unit": "µM"}, {"measurement": "TGI", "setting": "BT-549 breast", "value": "> 100", "unit": "µM"}]}
